In US20240261367A1, “CYCLIC PEPTIDE IMMUNOMODULATORS” (priority 2021, published 2024):

Molecular target: T1, PD-1/PD-L1 (Homo sapiens, UniProt Q9NZQ7)
T1 construct: TVMV protease site linker (C); made in house; host or cells: HEK293T cells
Test: PD-1/PD-L1 Homogenous Time-Resolved Fluorescence (HTRF) binding assay
Conditions: PD-L1-His (10 nM) pre-incubated with inhibitor 15 m, then PD-1-Ig (20 nM)

T1 sequence (Q9NZQ7 18-239): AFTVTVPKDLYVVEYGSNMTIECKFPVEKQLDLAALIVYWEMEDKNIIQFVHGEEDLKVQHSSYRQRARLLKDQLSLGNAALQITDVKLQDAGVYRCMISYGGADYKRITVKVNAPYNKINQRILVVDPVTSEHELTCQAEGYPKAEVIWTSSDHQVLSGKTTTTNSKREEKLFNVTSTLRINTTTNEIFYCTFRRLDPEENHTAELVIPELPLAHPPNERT

| SMILES | IC50 [nM] |
| --- | --- |
| CCCC[C@H]1C(=O)N(C)[C@@H](CCCC)C(=O)N[C@@H](CC(C)C)C(=O)N[C@H](C(=O)NCC(=O)N[C@@H](Cc2cn(CCOCCOCCOCCOCCOCCOCCOCCOCCOCCOCCOCCNC(=O)CC[C@H](NC(=O)CCCCCCCCCCCCCCCCC(=O)O)C(=O)OC)nn2)C(=O)O)CSCC(=O)N[C@@H](Cc2ccc(O)cc2)C(=O)N(C)[C@@H](C)C(=O)N[C@@H](CC(N)=O)C(=O)N2CCC[C@H]2C(=O)N[C@@H](CN)C(=O)N[C@@H](CC(C)C)C(=O)N2C[C@H](O)C[C@H]2C(=O)N[C@@H](Cc2c[nH]c3ccccc23)C(=O)N[C@@H](CCN)C(=O)N[C@@H](CC2=CC(CC(=O)O)c3ccccc32)C(=O)N1C (some centres unmarked) [Example 1026] | 2.9 |
| CCCC[C@H]1C(=O)N(C)[C@@H](CCCC)C(=O)N[C@@H](CC(C)C)C(=O)N[C@H](C(=O)NCC(=O)N[C@@H](Cc2cn(CCOCCOCCOCCOCCOCCOCCOCCOCCOCCOCCOCCNC(=O)CC[C@H](NC(=O)CCCCCCCCCCCCCCCCC(=O)O)C(=O)O)nn2)C(=O)O)CSCC(=O)N[C@@H](Cc2ccc(O)cc2)C(=O)N(C)[C@@H](C)C(=O)N[C@@H](CC(N)=O)C(=O)N2CCC[C@H]2C(=O)N[C@@H](CNC(=O)OCc2oc(=O)oc2C)C(=O)N[C@@H](CC(C)C)C(=O)N2C[C@H](O)C[C@H]2C(=O)N[C@@H](Cc2c[nH]c3ccccc23)C(=O)N[C@@H](CCNC(=O)CCc2oc(=O)oc2C)C(=O)N[C@@H](CC2=CC(CC(=O)O)c3ccccc32)C(=O)N1C (some centres unmarked) [Example 1022] | 6.8 |
